{"source": "patent US12364709B2", "about": "“Bioavailable poly amines” (AMINEX THERAPEUTICS, INC., priority 2016, dated 2025)", "test": "28-day repeat-dose toxicity study, toxicokinetics of AMXT 1501 dicaprate", "assay_type": "in vivo, beagle dogs", "conditions": "both sexes, beagle, dog, plasma, po", "method": "AMXT 1501 PK parameters were calculated for all AMXT 1501 dicaprate-dosed animals for the first dose (Day 1) and last dose (Day 28).", "note": "Where two headings read alike, the source gives them in different places."}
{"smiles": "CCCCCCCCCCCCCCCC(=O)NCCCC[C@@H](N)C(=O)NCCCNCCCCNCCCN", "note": "[AMXT 1501 dicaprate]", "values": [{"measurement": "AUC(0-t)", "setting": "8 mg/kg/day, 8 mg/kg/day PO, DFMO 0, Day 1, M+F combined, read-out: AUC0-24 hr Median", "value": 1500, "unit": "ng·h/mL"}, {"measurement": "Cmax", "setting": "8 mg/kg/day, 8 mg/kg/day PO, DFMO 0, Day 1, M+F combined, read-out: Cmax Mean", "value": 95.6, "unit": "ng/mL"}, {"measurement": "Cmax", "setting": "8 mg/kg/day, 8 mg/kg/day PO, DFMO 0, Day 1, M+F combined, read-out: Cmax Median", "value": 115, "unit": "ng/mL"}, {"measurement": "Tmax", "setting": "8 mg/kg/day, 8 mg/kg/day PO, DFMO 0, Day 1, M+F combined, read-out: Tmax Mean", "value": 5.33, "unit": "h"}, {"measurement": "Tmax", "setting": "8 mg/kg/day, 8 mg/kg/day PO, DFMO 0, Day 1, M+F combined, read-out: Tmax Median", "value": 6, "unit": "h"}, {"measurement": "AUC(0-t)", "setting": "8 mg/kg/day, 8 mg/kg/day PO, DFMO 0, Day 28, M+F combined, read-out: AUC0-24 hr Mean", "value": 2210, "unit": "ng·h/mL"}, {"measurement": "AUC(0-t)", "setting": "8 mg/kg/day, 8 mg/kg/day PO, DFMO 0, Day 28, M+F combined, read-out: AUC0-24 hr Median", "value": 1690, "unit": "ng·h/mL"}, {"measurement": "AUC(0-t)", "setting": "8 mg/kg/day, 8 mg/kg/day PO, DFMO 0, Day 28, M+F combined, read-out: AUC0-t Mean", "value": 3390, "unit": "ng·h/mL"}, {"measurement": "AUC(0-t)", "setting": "8 mg/kg/day, 8 mg/kg/day PO, DFMO 0, Day 28, M+F combined, read-out: AUC0-t Median", "value": 1900, "unit": "ng·h/mL"}, {"measurement": "AUC(0-inf)", "setting": "8 mg/kg/day, 8 mg/kg/day PO, DFMO 0, Day 28, M+F combined, read-out: AUC0-∞ Mean", "value": 3440, "unit": "ng·h/mL"}, {"measurement": "AUC(0-inf)", "setting": "8 mg/kg/day, 8 mg/kg/day PO, DFMO 0, Day 28, M+F combined, read-out: AUC0-∞ Median", "value": 1930, "unit": "ng·h/mL"}, {"measurement": "Cmax", "setting": "8 mg/kg/day, 8 mg/kg/day PO, DFMO 0, Day 28, M+F combined, read-out: Cmax Mean", "value": 153, "unit": "ng/mL"}, {"measurement": "Cmax", "setting": "8 mg/kg/day, 8 mg/kg/day PO, DFMO 0, Day 28, M+F combined, read-out: Cmax Median", "value": 127, "unit": "ng/mL"}, {"measurement": "Tmax", "setting": "8 mg/kg/day, 8 mg/kg/day PO, DFMO 0, Day 28, M+F combined, read-out: Tmax Mean", "value": 4.6, "unit": "h"}, {"measurement": "Tmax", "setting": "8 mg/kg/day, 8 mg/kg/day PO, DFMO 0, Day 28, M+F combined, read-out: Tmax Median", "value": 6, "unit": "h"}, {"measurement": "half-life", "setting": "8 mg/kg/day, 8 mg/kg/day PO, DFMO 0, Day 28, M+F combined, read-out: t1/2 Mean (converted)", "value": 19.7, "unit": "h"}, {"measurement": "half-life", "setting": "8 mg/kg/day, 8 mg/kg/day PO, DFMO 0, Day 28, M+F combined, read-out: t1/2 Median (converted)", "value": 18.7, "unit": "h"}, {"measurement": "AUC(0-t)", "setting": "8 mg/kg/day, 8 mg/kg/day PO, DFMO 50 mg/kg/day, Day 28, M+F combined, read-out: AUC0-24 hr Mean", "value": 2120, "unit": "ng·h/mL"}, {"measurement": "AUC(0-t)", "setting": "8 mg/kg/day, 8 mg/kg/day PO, DFMO 50 mg/kg/day, Day 28, M+F combined, read-out: AUC0-24 hr Median", "value": 2250, "unit": "ng·h/mL"}, {"measurement": "AUC(0-t)", "setting": "8 mg/kg/day, 8 mg/kg/day PO, DFMO 50 mg/kg/day, Day 28, M+F combined, read-out: AUC0-t Mean", "value": 3010, "unit": "ng·h/mL"}, {"measurement": "AUC(0-t)", "setting": "8 mg/kg/day, 8 mg/kg/day PO, DFMO 50 mg/kg/day, Day 28, M+F combined, read-out: AUC0-t Median", "value": 2970, "unit": "ng·h/mL"}, {"measurement": "AUC(0-inf)", "setting": "8 mg/kg/day, 8 mg/kg/day PO, DFMO 50 mg/kg/day, Day 28, M+F combined, read-out: AUC0-∞ Mean", "value": 3070, "unit": "ng·h/mL"}, {"measurement": "AUC(0-inf)", "setting": "8 mg/kg/day, 8 mg/kg/day PO, DFMO 50 mg/kg/day, Day 28, M+F combined, read-out: AUC0-∞ Median", "value": 3020, "unit": "ng·h/mL"}, {"measurement": "Cmax", "setting": "8 mg/kg/day, 8 mg/kg/day PO, DFMO 50 mg/kg/day, Day 28, M+F combined, read-out: Cmax Mean", "value": 152, "unit": "ng/mL"}, {"measurement": "Cmax", "setting": "8 mg/kg/day, 8 mg/kg/day PO, DFMO 50 mg/kg/day, Day 28, M+F combined, read-out: Cmax Median", "value": 171, "unit": "ng/mL"}, {"measurement": "Tmax", "setting": "8 mg/kg/day, 8 mg/kg/day PO, DFMO 50 mg/kg/day, Day 28, M+F combined, read-out: Tmax Mean", "value": 6.67, "unit": "h"}, {"measurement": "Tmax", "setting": "8 mg/kg/day, 8 mg/kg/day PO, DFMO 50 mg/kg/day, Day 28, M+F combined, read-out: Tmax Median", "value": 6, "unit": "h"}, {"measurement": "half-life", "setting": "8 mg/kg/day, 8 mg/kg/day PO, DFMO 50 mg/kg/day, Day 28, M+F combined, read-out: t1/2 Mean (converted)", "value": 18, "unit": "h"}, {"measurement": "half-life", "setting": "8 mg/kg/day, 8 mg/kg/day PO, DFMO 50 mg/kg/day, Day 28, M+F combined, read-out: t1/2 Median (converted)", "value": 20.3, "unit": "h"}, {"measurement": "AUC(0-t)", "setting": "8 mg/kg/day, 8 mg/kg/day PO, DFMO 200 mg/kg/day, Day 1, M+F combined, read-out: AUC0-24 hr Mean", "value": 1470, "unit": "ng·h/mL"}, {"measurement": "AUC(0-t)", "setting": "8 mg/kg/day, 8 mg/kg/day PO, DFMO 200 mg/kg/day, Day 1, M+F combined, read-out: AUC0-24 hr Median", "value": 1390, "unit": "ng·h/mL"}, {"measurement": "Cmax", "setting": "8 mg/kg/day, 8 mg/kg/day PO, DFMO 200 mg/kg/day, Day 1, M+F combined, read-out: Cmax Mean", "value": 101, "unit": "ng/mL"}, {"measurement": "Cmax", "setting": "8 mg/kg/day, 8 mg/kg/day PO, DFMO 200 mg/kg/day, Day 1, M+F combined, read-out: Cmax Median", "value": 86.5, "unit": "ng/mL"}, {"measurement": "Tmax", "setting": "8 mg/kg/day, 8 mg/kg/day PO, DFMO 200 mg/kg/day, Day 1, M+F combined, read-out: Tmax Mean", "value": 9, "unit": "h"}, {"measurement": "Tmax", "setting": "8 mg/kg/day, 8 mg/kg/day PO, DFMO 200 mg/kg/day, Day 1, M+F combined, read-out: Tmax Median", "value": 9, "unit": "h"}, {"measurement": "AUC(0-t)", "setting": "16 mg/kg/day, 16 mg/kg/day PO, DFMO 0, Day 1, M+F combined, read-out: AUC0-24 hr Mean", "value": 2500, "unit": "ng·h/mL"}, {"measurement": "AUC(0-t)", "setting": "16 mg/kg/day, 16 mg/kg/day PO, DFMO 0, Day 1, M+F combined, read-out: AUC0-24 hr Median", "value": 1750, "unit": "ng·h/mL"}, {"measurement": "Cmax", "setting": "16 mg/kg/day, 16 mg/kg/day PO, DFMO 0, Day 1, M+F combined, read-out: Cmax Mean", "value": 155, "unit": "ng/mL"}, {"measurement": "Cmax", "setting": "16 mg/kg/day, 16 mg/kg/day PO, DFMO 0, Day 1, M+F combined, read-out: Cmax Median", "value": 113, "unit": "ng/mL"}, {"measurement": "Tmax", "setting": "16 mg/kg/day, 16 mg/kg/day PO, DFMO 0, Day 1, M+F combined, read-out: Tmax Mean", "value": 6, "unit": "h"}, {"measurement": "Tmax", "setting": "16 mg/kg/day, 16 mg/kg/day PO, DFMO 0, Day 1, M+F combined, read-out: Tmax Median", "value": 6, "unit": "h"}, {"measurement": "AUC(0-t)", "setting": "16 mg/kg/day, 16 mg/kg/day PO, DFMO 0, Day 28, M+F combined, read-out: AUC0-24 hr Mean", "value": 4590, "unit": "ng·h/mL"}, {"measurement": "AUC(0-t)", "setting": "16 mg/kg/day, 16 mg/kg/day PO, DFMO 0, Day 28, M+F combined, read-out: AUC0-24 hr Median", "value": 4890, "unit": "ng·h/mL"}, {"measurement": "AUC(0-t)", "setting": "16 mg/kg/day, 16 mg/kg/day PO, DFMO 0, Day 28, M+F combined, read-out: AUC0-t Mean", "value": 7970, "unit": "ng·h/mL"}]}
